Where a name gives a salt, the structure may show the parent alone.
What was measured:
rat 5-HT7 receptor = rat 5-HT7 receptor (Rattus norvegicus (Rat), UniProt P32305); experiment: r5-HT7 binding assay, competitive radioligand binding with [3H]5-CT
How it was run: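 Rat 5-HT7 binding: HEK-293 membrane fractions, [3H]5-CT displacement, radioactivity counted, Ki reported. Antagonist mode: intact r5-HT7 HEK-293 cells, test compound 10 min, then 5-CT 100 nM for 20 min, lysis, cAMP by competitive immunoassay.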

human SERT = human SERT (Homo sapiens (Human), UniProt P31645); experiment: human SERT binding assay with [3H]-citalopram on HEK-293 membranes; conditions: read-out: hSERT binding Ki
human SERT, sequence (P31645 whole entry): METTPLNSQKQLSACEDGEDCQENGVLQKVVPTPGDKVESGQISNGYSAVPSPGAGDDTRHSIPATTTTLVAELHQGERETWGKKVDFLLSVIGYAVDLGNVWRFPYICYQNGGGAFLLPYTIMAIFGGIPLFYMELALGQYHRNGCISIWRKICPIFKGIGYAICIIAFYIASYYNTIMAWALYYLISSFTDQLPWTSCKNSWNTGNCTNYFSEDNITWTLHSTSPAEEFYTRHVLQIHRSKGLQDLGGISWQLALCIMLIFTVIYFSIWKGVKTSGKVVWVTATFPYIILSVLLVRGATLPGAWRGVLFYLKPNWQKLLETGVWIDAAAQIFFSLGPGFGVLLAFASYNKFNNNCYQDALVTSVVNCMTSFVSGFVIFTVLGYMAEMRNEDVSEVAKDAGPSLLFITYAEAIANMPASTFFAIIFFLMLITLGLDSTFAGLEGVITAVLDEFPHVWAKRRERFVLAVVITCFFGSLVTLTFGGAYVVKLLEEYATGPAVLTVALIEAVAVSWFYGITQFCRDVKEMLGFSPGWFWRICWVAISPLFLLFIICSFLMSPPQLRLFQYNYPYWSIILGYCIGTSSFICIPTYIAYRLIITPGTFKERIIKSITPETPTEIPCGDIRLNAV
Procedure: (§1) Receptor binding was performed using membrane fractions prepared from the HEK-293 cell line recombinantly expressing rat 5-HT7 receptors (NCBI accession NM_022938). Compound affinity for the rat 5-HT7 receptor subtype was evaluated by competitive radioligand binding assays using 5-carboxamido[^3H]tryptamine ([^3H]5-CT) (Amersham Biosciences, cat. 90000403) detection. HitHunter™ cAMP assays are in-vitro based competitive immunoassays. The assay was performed on the HEK-293 cell line stably transfected with r5-HT7 receptor. Cells were pre-incubated with test compounds for 10 minutes. For antagonist testing, the cells were then challenged with 100 nM 5-CT for 20 minutes. Cells were then lysed and cAMP measured according to manufacturers protocol (Amersham, cat. NET791250UC) or [^3H]mesulergine (Amersham, cat. TRK1041). The assay was performed on membranes prepared from HEK-293 cells stably transfected with h5-HT6. Following centrifugation, membranes were resuspended and incubated for 60 min at room temperature with 1.7 nM [^3H]LSD in the presence of increasing concentration of test compounds. Nonspecific binding was defined in the presence of 10 μM clozapine (Tocris, cat. TRK1068). Homogenized HEK-293 membranes expressing the human SERT were incubated in 50 mM Tris-HCl (pH 7.5), 120 mM NaCl, 5 mM KCl with [^3H]-citalopram (3 nM) with or without test compounds. Nonspecific binding was determined in the presence of 10 μM fluoxetine. Radioactivity readouts and Ki values were performed as previously described for r5-HT7. […] Compounds were assayed in their free form or as salts, as indicated in the Examples section above.

r5-HT7 receptor = r5-HT7 receptor (Rattus norvegicus (Rat), UniProt P32305); experiment: HitHunter cAMP assay, antagonist testing against 100 nM 5-CT; type: cell-based; conditions: antagonist testing, 100 nM 5-CT challenge, HEK-293 r5-HT7; read-out: R5HT7 cAMP pKb (converted)
r5-HT7 receptor, sequence (P32305 1-435): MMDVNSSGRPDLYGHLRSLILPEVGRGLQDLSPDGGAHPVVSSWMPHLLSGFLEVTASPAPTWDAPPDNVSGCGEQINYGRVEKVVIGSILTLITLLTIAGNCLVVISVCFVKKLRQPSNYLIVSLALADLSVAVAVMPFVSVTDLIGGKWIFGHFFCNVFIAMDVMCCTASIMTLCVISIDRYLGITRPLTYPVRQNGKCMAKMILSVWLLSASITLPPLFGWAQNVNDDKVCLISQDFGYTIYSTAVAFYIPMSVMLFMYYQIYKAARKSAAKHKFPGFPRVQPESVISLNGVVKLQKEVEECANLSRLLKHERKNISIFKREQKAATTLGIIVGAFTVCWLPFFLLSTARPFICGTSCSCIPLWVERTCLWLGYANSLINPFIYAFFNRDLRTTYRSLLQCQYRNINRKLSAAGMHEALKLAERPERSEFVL
Procedure: as §1

[1] = rat 5-HT7 receptor, HEK-293 membranes

rat 5-HT7 receptor, sequence (P32305 1-435): as above

| Structure (SMILES) | Ki (rat 5-HT7 receptor; [1]) | Ki (human SERT) | Kb (r5-HT7 receptor) | Ki (rat 5-HT7 receptor; rat 5-HT7, HEK-293 membranes) |
| --- | --- | --- | --- | --- |
| Fc1ccc2c(c1)C(Oc1ccc(Cl)cc1OC1CNC1)CC2 (racemic) [Example 150, (±)-3-[5-Chloro-2-(6-fluoro-indan-1-yloxy)-phenoxy]-azetidine] | 10 nM | 13 nM | 10 nM | – |
| Clc1ccc2c(c1)CCC2Oc1ccc(Br)cc1OC1CNC1 (racemic) [Example 152, (±)-3-[5-Bromo-2-(5-chloro-indan-1-yloxy)-phenoxy]-azetidine] | 19 nM | 25 nM | 39.8 nM | – |
| Fc1ccc2c(c1)CCC2Oc1ccc(Br)cc1OC1CNC1 (racemic) [Example 154, (±)-3-[5-Bromo-2-(5-fluoro-indan-1-yloxy)-phenoxy]-azetidine] | 18 nM | 13 nM | 20 nM | – |
| FC(F)(F)c1ccc2c(c1)C(Oc1ccc(Br)cc1OC1CNC1)CC2 (racemic) [Example 157, (±)-3-[5-Bromo-2-(6-trifluoromethyl-indan-1-yloxy)-phenoxy]-azetidine] | 10 nM | 181 nM | 5.01 nM | – |
| Brc1ccc(OCc2ccccc2)c(OC2CNC2)c1 [Example 1, 3-(2-Benzyloxy-5-bromo-phenoxy)-azetidine] | 9 nM | 48 nM | 12.6 nM | – |
| Clc1cccc(COc2ccc(Br)cc2OC2CN(C3CCC3)C2)c1 [Example 3, 3-[5-Bromo-2-(3-chloro-benzyloxy)-phenoxy]-1-cyclobutyl-azetidine] | 18 nM | 381 nM | 2.51 nM | – |
| CC(C)N1CC(Oc2cc(Br)ccc2OCc2cccc(Cl)c2)C1 [Example 5, 3-[5-Bromo-2-(3-chloro-benzyloxy)-phenoxy]-1-isopropyl-azetidine] | 8 nM | 194 nM | 5.01 nM | – |
| CCN1CC(Oc2cc(Br)ccc2OCc2cccc(Cl)c2)C1 [Example 6, 3-[5-Bromo-2-(3-chloro-benzyloxy)-phenoxy]-1-ethyl-azetidine] | 6 nM | 249 nM | 3.98 nM | – |
| FC(F)(F)Oc1cccc(COc2ccc(Br)cc2OC2CNC2)c1 [Example 7, 3-[5-Bromo-2-(3-trifluoromethoxy-benzyloxy)-phenoxy]-azetidine] | 10 nM | 23 nM | 63.1 nM | – |
| FC(F)(F)c1cccc(COc2ccc(Br)cc2OC2CNC2)c1 [Example 8, 3-[5-Bromo-2-(3-trifluoromethyl-benzyloxy)-phenoxy]-azetidine] | 6 nM | 4 nM | 7.94 nM | – |
| N#Cc1cccc(COc2ccc(Br)cc2OC2CNC2)c1 [Example 9, 3-[2-(Azetidin-3-yloxy)-4-bromo-phenoxymethyl]-benzonitrile] | 11 nM | 2 nM | 20 nM | – |
| Fc1ccc(COc2ccc(Br)cc2OC2CNC2)cc1Cl [Example 12, 3-[5-Bromo-2-(3-chloro-4-fluoro-benzyloxy)-phenoxy]-azetidine] | 11 nM | 6 nM | 3.16 nM | – |
| COc1ccc(COc2ccc(Br)cc2OC2CNC2)cc1Cl [Example 13, 3-[5-Bromo-2-(3-chloro-4-methoxy-benzyloxy)-phenoxy]-azetidine] | 4 nM | 6 nM | 3.98 nM | – |
| Clc1ccc(COc2ccc(Br)cc2OC2CNC2)cc1 [Example 14, 3-[5-Bromo-2-(4-chloro-benzyloxy)-phenoxy]-azetidine trifluoroacetate] | 12 nM | 52 nM | 158 nM | – |
| CCN1CC(Oc2cc(Br)ccc2OCc2cccc(F)c2)C1 [Example 18, 3-[5-Bromo-2-(3-fluoro-benzyloxy)-phenoxy]-1-ethyl-azetidine] | 5 nM | 435 nM | 1.58 nM | – |
| CCCN1CC(Oc2cc(Br)ccc2OCc2cccc(F)c2)C1 [Example 19, 3-[5-Bromo-2-(3-fluoro-benzyloxy)-phenoxy]-1-propyl-azetidine] | 4 nM | 396 nM | 2 nM | – |
| Fc1ccc(COc2ccc(Cl)cc2OC2CNC2)cc1 [Example 25, 3-[5-Chloro-2-(4-fluoro-benzyloxy)-phenoxy]-azetidine hydrochloride] | 18 nM | 19 nM | 39.8 nM | – |
| COc1cccc(COc2ccc(Cl)cc2OC2CNC2)c1 [Example 33, 3-[5-Chloro-2-(3-methoxy-benzyloxy)-phenoxy]-azetidine] | 7 nM | 8 nM | 15.8 nM | – |

| Structure (SMILES) | Ki (rat 5-HT7 receptor; [1]) | Ki (human SERT) | Kb (r5-HT7 receptor) | Ki (rat 5-HT7 receptor; rat 5-HT7, HEK-293 membranes) |
| --- | --- | --- | --- | --- |
| N#Cc1cccc(COc2ccc(Cl)cc2OC2CNC2)c1 [Example 34, 3-[2-(Azetidin-3-yloxy)-4-chloro-phenoxymethyl]-benzonitrile] | 29 nM | 1 nM | 39.8 nM | – |
| Clc1ccc(OCc2ccccc2Cl)c(OC2CNC2)c1 [Example 35, 3-[5-Chloro-2-(2-chloro-benzyloxy)-phenoxy]-azetidine trifluroacetate] | 23 nM | 3 nM | 1000 nM | – |
| Clc1ccc(COc2ccc(Cl)cc2OC2CNC2)cc1 [Example 36, 3-[5-Chloro-2-(4-chloro-benzyloxy)-phenoxy]-azetidine trifluoroacetate] | 15 nM | 36 nM | 794 nM | – |
| FC(F)(F)c1cccc(COc2ccc(Cl)cc2OC2CNC2)c1 [Example 39, 3-[5-Chloro-2-(3-trifluoromethyl-benzyloxy)-phenoxy]-azetidine] | 7 nM | 4 nM | 3.16 nM | – |
| Clc1ccc(OCc2ccccc2)c(OC2CNC2)c1 [Example 40, 3-(2-Benzyloxy-5-chloro-phenoxy)-azetidine] | 9 nM | 43 nM | 39.8 nM | – |
| FC(F)(F)c1cc(COc2ccc(Cl)cc2OC2CNC2)ccc1Cl [Example 49, 3-[5-Chloro-2-(4-chloro-3-trifluoromethyl-benzyloxy)-phenoxy]-azetidine] | 13 nM | 40 nM | 25.1 nM | – |
| Clc1ccc(OCc2ccc(Cl)c(Cl)c2)c(OC2CNC2)c1 [Example 50, 3-[5-Chloro-2-(3,4-dichloro-benzyloxy)-phenoxy]-azetidine] | 10 nM | 5 nM | 31.6 nM | – |
| FC(F)(F)c1ccc(COc2ccc(Cl)cc2OC2CCNCC2)o1 [Example 63, 4-[5-Chloro-2-(5-trifluoromethyl-furan-2-ylmethoxy)-phenoxy]-piperidine hydrochloride] | 7 nM | 48 nM | 25.1 nM | – |
| Clc1ccc(OC2CCCc3ccccc32)c(OC2CNC2)c1 (stereo not drawn) [Example 161, 3-[5-Chloro-2-(1,2,3,4-tetrahydro-naphthalen-1-yloxy)-phenoxy]-azetidine] | 28 nM | 60 nM | 15.8 nM | – |
| Clc1ccc(OC2Cc3ccccc3C2)c(OC2CNC2)c1 [Example 173, 3-[5-Chloro-2-(indan-2-yloxy)-phenoxy]-azetidine] | 7 nM | 56 nM | 7.94 nM | – |
| Brc1ccc(OC2Cc3ccccc3C2)c(OC2CNC2)c1 [Example 174, 3-[5-Bromo-2-(indan-2-yloxy)-phenoxy]-azetidine] | 6 nM | 42 nM | 6.31 nM | – |
| ON=C(COc1ccc(Cl)cc1OC1CNC1)c1ccccc1 [Example 181, 2-[2-(Azetidin-3-yloxy)-4-chloro-phenoxy]-1-phenyl-ethanone oxime] | 19 nM | 967 nM | 20 nM | – |
| CN1CC(Oc2cc(F)ccc2OCc2cccc(Cl)c2)C1 [Example 203, 3-[2-(3-Chloro-benzyloxy)-5-fluoro-phenoxy]-1-methyl-azetidine] | 24 nM | 271 nM | 20 nM | – |
| CC(C)N1CC(Oc2cc(F)ccc2OCc2ccc(C(F)(F)F)o2)C1 [Example 209, 3-[5-Fluoro-2-(5-trifluoromethyl-furan-2-ylmethoxy)-phenoxy]-1-isopropyl-azetidine] | 13 nM | 20 nM | 20 nM | – |
| Clc1cccc(Oc2ccc(Br)cc2OC2CNC2)c1 [Example 252, 3-[5-Bromo-2-(3-chloro-phenoxy)-phenoxy]-azetidine] | – | 60 nM | 63.1 nM | 7 nM |
| Clc1ccc(Oc2ccc3ccccc3c2)c(OC2CNC2)c1 [Example 260, 3-[5-Chloro-2-(naphthalen-2-yloxy)-phenoxy]-azetidine] | – | 2 nM | 1000 nM | 16 nM |
| O=C(c1ccc2ccccc2c1)c1ccc(Br)cc1OC1CNC1 [Example 287, [2-(Azetidin-3-yloxy)-4-bromo-phenyl]-naphthalen-2-yl-methanone] | – | 14 nM | 63.1 nM | 15 nM |

— US9981909B2 (Janssen Pharmaceutica NV, priority 2008, dated 2018)
